Assay [1] has as its system EGFR/PI3K/Akt/mTOR signaling pathway in LN229 cells. The assay can be described thus: Western blot of EGFR/PI3K/Akt/mTOR signaling in LN229. Format: cell-based, human. To be noted: LN229, 24 h. The source says:
(§1) Primary antibodies against Bax (50599-2-Ig), Bcl-2 (26593-1-AP), Akt (10176-2-AP), p-Akt (28731-1-AP), PI3K (20584-1-AP), p-PI3K (60225-1-Ig), mTOR (28273-1-AP), p-mTOR (67778-1-Ig), Cytochrome C (10993-1-AP), β-actin (20536-1-AP), HRP-Goat-Anti-Mouse IgG (H+L) (SA00001-1), and HRP-Goat-Anti-Rabbit IgG (H+L) (SA00001-2) were obtained from Proteintech Group, Inc. (Rosemont, USA). Primary antibodies against EGFR (WL0682a), p-EGFR (WL03432) and cleaved caspase 3 (WL01992) were obtained from Wanleibio (Shenyang, China). The LN229 cells were treated with various concentrations of 1 or 0.1% DMSO for 24 h. A BCA Protein Assay Kit was used to measure the protein concentration, then equal amounts of protein samples were separated by 10% sodium dodecyl sulfate–polyacrylamide gel electrophoresis and transferred to a polyvinylidene fluoride membrane (Millipore, Burlington, MA, USA). The membranes were blocked for 2 h in Tris-buffered saline with PBST buffer, containing 5% skim milk. Then, the membranes were incubated with the appropriate primary antibodies overnight at 4 ℃. Then, the membranes were washed with PBST and reacted with a secondary horseradish peroxidase-conjugated antibody. Image Lab 5.2.1 (Biorad Laboratories, Hercules, CA, USA) was used to analyze the blots after detection using enhanced chemiluminescence (Millipore). Data analyses were performed using the GraphPad Prism software (San Diego, CA, USA).

In assay [2] the test system is HeLa (human cervical cancer cells). Put plainly: CCK-8 cytotoxic assay, HeLa. The format is cell-based. To be noted: HeLa cells, CCK-8, 24 h, read-out: IC50 ± SD, HeLa. An excerpt:
(§2) U251 (human glioma cells), HeLa (human cervical cancer cells), and HepG2 (human hepatic cancer cells) were purchased from the Chinese Academy of Sciences (China), and Capan-2 (human pancreatic cancer cells) were obtained from Nanjing Cobioer Biosicences (Nanjing, China). American Type Culture Collection (ATCC) provided LN229 (human glioma cells). NHA (Gibco Human Astrocytes) and Gibco Astrocyte Medium (DMEM, N-2 Supplement, One Shot fetal bovine serum) were purchased from ThermoFisher Scientific (Waltham, MA, USA). The LN229, U251, HepG2 and HeLa cells were cultured in DMEM (Procell, Wuhan, China). The Capan-2 cells were cultured in RPMI-1640 (Procell, Wuhan, China) and NHA cells were cultured in Gibco Astrocyte Medium, supplemented with 10% FBS (Solarbio, Beijing, China) and 1% Penicillin–Streptomycin (Elabscience Biotechnology Co.,Ltd, Wuhan, China) at 37 °C with 5% CO2.
(§3) In the exponential phase of the growth, five tumor cell lines and one normal human astrocytes were plated onto 96-well plates at a concentration of 8000 cells/well for 24 h. Compounds 1–12 were prepared to various concentrations (64, 32, 16, 8, 4, 2, 1 and 0.5 µM in medium containing less than 0.1% DMSO) and incubated in 96-well plates (each concentration in four-fold wells) for 24 h. Cell viability was determined according to reported assay methods using the commercial CCK-8 kit (Elabscience Biotechnology Co., Ltd., Wuhan, China). The optical density (OD) of each well was measured with an AMR-100 microplate reader at 450 nm (Allsheng Corporation, Hangzhou, China). Cytotoxicity emerged as the value of the drug concentration at the inhibition of cell growth by 50% (IC50). The experiments were conducted for three independent replicates, and Doxorubicin was used as the positive control.
A general note: Tetrazolium assays rely on reduction of a dye to a coloured formazan, in cell work by metabolically active cells.

Assay [3] relates to Capan-2 (human pancreatic cancer cells). Put plainly: CCK-8 cytotoxic assay, Capan-2. To be noted: Capan-2 cells, CCK-8, 24 h, read-out: IC50 ± SD, Capan-2. Format: cell-based.
Excerpt: as §2, §3

For assay [4], the system named is NHA (normal human astrocytes). Put plainly: CCK-8 cytotoxic assay, NHA normal astrocytes. The format is cell-based. To be noted: Astrocyte; NHA normal human astrocytes, CCK-8, 24 h; read-out: IC50 ± SD, NHA.
Excerpt: as §2, §3

A further assay has as its system glioma cells LN229. Put plainly: Flow cytometry analysis for apoptosis (Annexin V-FITC/PI). The format is cell-based, human. To be noted: different concentrations, 24 h. As to the method:
Flow cytometry was used to analyze the effect of 1 on the apoptosis of glioma cells LN229. Cells were treated with different concentrations of 1 for 24 h. Then, the cells were collected and washed twice with cold PBS for five minutes (1000 rpm). The cells were analyzed for apoptosis by flow cytometry (BD, Franklin Lakes, NJ, USA) using the Annexin V-FITC/PI assay kit.

Assay [5] has as its system five cancer cell lines (LN229, U251, Capan-2, HeLa, HepG2). Put plainly: CCK-8 cytotoxic assay, summary over five cancer cell lines. Format: cell-based. To be noted: Homo sapiens, range over compounds 1 and 2 and five cancer cell lines, read-out: IC50 values (range) against five cancer cell lines.
Excerpt: as §2
In the exponential phase of the growth, five tumor cell lines and one normal human astrocytes were plated onto 96-well plates at a concentration of 8000 cells/well for 24 h. […] Cell viability was determined according to reported assay methods using the commercial CCK-8 kit (Elabscience Biotechnology Co., Ltd., Wuhan, China). The optical density (OD) of each well was measured with an AMR-100 microplate reader at 450 nm (Allsheng Corporation, Hangzhou, China). […]

Assay [6] relates to Bax/Bcl-2, cleaved caspase 3, cytochrome c in LN229 cells. Put plainly: Western blot of apoptosis-related proteins in LN229. The format is cell-based, human. To be noted: LN229, 24 h, compared with the control group.
Excerpt: as §1

Assay [7] relates to HepG2 (human hepatic cancer cells). The assay can be described thus: CCK-8 cytotoxic assay, HepG2. To be noted: HepG2 cells, CCK-8, 24 h, read-out: IC50 ± SD, HepG2. Format: cell-based.
Excerpt: as §2, §3

Assay [8] deals with U251 (human glioma cells). The assay can be described thus: CCK-8 cytotoxic assay, U251. Format: cell-based. To be noted: U-251, U251 cells, CCK-8, 24 h, read-out: IC50 ± SD, U251.
Excerpt: as §2, §3

The test system of assay [9] is LN229 (human glioma cells). Put plainly: CCK-8 cytotoxic assay, LN229. To be noted: LN-229, LN229 cells, CCK-8, 24 h, read-out: IC50 ± SD, LN229. Format: cell-based.
Excerpt: as §2, §3

Structures are written as SMILES.

One may read the IC50 as the midpoint of a concentration-inhibition curve.

On to `CC1CCC2(OC1)OC1CC3C4CC=C5CC(OC6OC(COC7(CO)OC(CO)C(O)C7O)C(O)C(O)C6OC6OC(C)C(O)C(O)C6O)CCC5(C)C4CCC3(C)C1C2C` [Compound 1, diosgenin-3-O-β-D-fructofuranosyl-(1→6)-[α-L-rhamnopyranosyl-(1 → 2)]-β-D-glucopyranoside], for which, in assay [1], the “expression level of p-Akt” value is “decreased”, the “expression level of p-PI3K” value is reported as “decreased”, the “expression level of p-mTOR” value is recorded as “decreased” and the “expression of total EGFR” value is given as “no evident effect”. Further, in [1], the “phosphorylation levels of EGFR” value was “significantly suppressed”. Also, the IC50 in assay [2] came to 3.3 ± 0.38 µM. Also, the concentration for half-maximal inhibition (IC50) in [3] turned out to be 3.26 ± 0.34 µM. Further, the IC50 in assay [4] was greater than 50 µM. In the assay on glioma cells LN229, the “ratio of apoptotic LN229 (Annexin V+/PI−)” value is “increased” and the “ratio of living cells (Annexin V−/PI−)” value is recorded as “decreased”. Further, the half-maximal inhibitory concentration (IC50) in assay [5] lay within 3.26 to 22.3 µM. Besides, in [6], the “expression of Bax/Bcl-2” value is reported as “significantly increased”, the “expression of cleaved caspase 3” value is recorded as “significantly increased” and the “expression of cytochrome c” value is recorded as “significantly increased”. In assay [7], the half-inhibitory concentration (IC50) was 4.32 ± 0.51 µM. In [8], the IC50 stood at 3.85 ± 0.44 µM. For the same compound, the concentration for half-maximal inhibition (IC50) in assay [9] is 4.18 ± 0.31 µM.

The values above are taken from publication PMC10138723, “Cytotoxic Steroidal Saponins Containing a Rare Fructosyl from the Rhizomes of Paris polyphylla var. latifolia” (International Journal of Molecular Sciences, 2023).
